Laboratory results as given in US20220030850A1, “CRYOPRESERVATIVE COMPOSITIONS AND METHODS” (REGENTS OF THE UNIVERSITY OF MINNESOTA, priority 2015, published 2022).

Experiments:
Jurkat cells [1] = assay: Raman microscopy cell penetration study of cryoprotectants; format: cell-based; details: for Penetration: Raman microscopy, at room temperature and at freezing temperatures; for location of cryoprotectant in Raman contrast image: Jurkat cells frozen in either glycerol or trehalose, FIG. 12
Protocol: Raman microscopy data provides an indication of the location of action of each cryopreservative. The images in FIG. 12 show Jurkat cells frozen in either glycerol (penetrating) or trehalose (non-penetrating).
These experiments were performed for most of the components described in the sections above both at room temperature and at freezing temperatures to assess whether penetration was temperature dependent.
Confocal Raman Microspectroscopy (CRM) measurements are conducted using Witec Confocal Raman Microscope System Alpha 300R (WITec, Wissenschaftliche Instrumente und Technologie GmbH, Ulm, Germany) with UHTS300 spectrometer and DV401 CCD detector. A wavelength of 532 nm Nd:YAG laser and 10 mW of power is used as excitation source. The laser is transferred to the microscopy in a singer fiber. A 100× air objective (NA 0.90; Nikon Instruments, Melville, N.Y.) is used for focusing the 532 nm excitation laser to the sample. Data collection and analysis are performed by Windows-based WitecControl_1.38 software.

MSCs = assay: High throughput factorial screening with Linear Mixed Effects statistical analysis of recovery; format: cell-based, human; details: for correlation with recovery: statistical analysis
Protocol: (§1) In another evaluation, cells were combined with factorial combinations of the components listed in Table 5, using one component from each category. Plates including cells and solutions were frozen at cooling rates of 1′C/min, 3′C/min, 5′C/min, or 10′C/min.
(§2) Recovery was calculated by dividing the number of live cells post thaw—calculated using a control curve correlating calcein-acetoxymethyl (AM) fluorescence to cell count—by the number of live cells seeded pre-freeze (AO/PI counts taken prior to freezing). Recovery was normalized by dividing by the DMSO recovery on each plate, then multiplying by a standard DMSO recovery for each cooling rate. This normalized recovery was used to compare samples between different plates and different cooling rates.
(§3) Statistical analysis of the data was performed using a Linear Effects Model. The model associated with best fit was determined using Bayesian Information Criteria. […] The ten best combinations for Jurkats are summarized in Table 6 below, while the eight best combinations for MSCs are summarized in Table 7.
To assess the importance of the four explanatory variables of interest (Sugar, Rate, Additive and Alcohol), without neglecting the variation between each batch and between each plate within the batches, we sought to find the best Linear Mixed Effects (LME) model. With yi the i'th outcome of the response, Xi the corresponding values of the covariates, the LME model is defined as
To select the most fitting model, we performed backward elimination based on the Bayesian Information Criterion (BIC) starting with a model that includes all variables and second order interactions. Furthermore, we included two random variables, one to catch the effect of the batch, and one to catch the effect of each plate within the batch—i.e., the full model is: […]

Jurkat cells [2] = assay: as above; format: cell-based; details: for correlation with recovery: statistical analysis, data not shown
Protocol: as §1, §2, §3
High throughput factorial screening experiments were performed on a Biomek Beckman FX 96 liquid handling robot. Briefly, 12.5 μl of an array of additives were transferred to nine 96-well plates containing 12.5 μl of different sugar alcohols. Cells (25 μl) diluted in either a sugar (in a solution of NORMOSOL-R; Hospira, Inc., Lake Forest, L) or a NORMOSOL-R blank solution were transferred to these nine plates to give a final volume of 50 μl in each well. Cells suspended in […] in media were also included as a row of each plate to serve as normalization wells for plate-to-plate comparison.
When all plate volume transfers were complete, silicone plate covers were used to seal each plate, and plates were transferred to a controlled rate freezer (Kryo 10 Series III, Planer PLC, Middlesex, United Kingdom) and frozen at cooling rates ranging from 1° C./min to 10° C./min. The concentrations of components present in solution are listed in Table 11, and were selected based on values described in literature or solubility limits. Component concentrations were 0 if not listed in a solution.
Plate samples were also assessed for viability using fluorescence. Briefly, a solution of calcein-AM/propidium iodide was prepared and a volume of 50 μl was added to each sample well of experimental 96-well plates, producing a 1:1 dilution. Plates were protected from light and placed in an incubator for 30 minutes to allow for calcein-AM digestion. A fluorescent plate reader (Synergy HT, BioTek Instruments, Inc., Winooski, Vt.) was used to determine the fluorescence in each well, which was correlated to live and dead cell counts using a control curve.
Viability was calculated for all samples by dividing the number of live cells by the number of total cells. Recovery was calculated directly by dividing the number of live cells post thaw by the number of live cells pre-freeze. Recovery for 96-well plate samples was further normalized; each experimental sample recovery was divided by the DMSO recovery on the same plate, and then multiplied by the standard DMSO recovery for the cooling rate of each experiment.
To assess the importance of the four explanatory variables of interest (Sugar, Rate, Additive and Alcohol), without neglecting the variation between each batch and between each plate within the batches, we sought to find the best Linear Mixed Effects (LME) model. […]

Jurkat cells [3] = assay: 96-well plate freezing, post-thaw scaled raw recovery (calcein-AM/PI); format: cell-based; details: 150, 300, 600 mM total sugar; FIG. 8
Protocol: The first phase of this study involved using the DE algorithm to develop a three-component cryopreservation solution used at a single cooling rate (1° C./min). Three components (trehalose, glycerol, and ectoine (TGE)) were selected as components of the exemplary freezing medium used for preservation of Jurkat cells, a hematopoietic model cell type, based on pre-screening of multiple non-DMSO components. For this single cooling rate study, the DE algorithm was programmed to output 18 vector solutions per generation with a weight=0.85 and a crossover=1. Jurkat cells cryopreserved in 10% DMSO at a cooling rate of 1° C./min were used as a control.
Cooling rate influences cell survival, and the preferred cooling rate for a given application can depend, at least in part, on the composition of the freezing medium and the cell type being frozen. […] To assess both cooling rate and the composition of the solution, the DE algorithm was programmed to output 27 vector solutions per generation with weight=0.85 and a crossover=1. Solutions were separated into categories based on their DE algorithm defined cooling rate, and were frozen in batches at a cooling rate of […], 0.5° C./min, 1° C./min, 3° C./min, 5° C./min, or 10° C./min. Results were normalized and scaled raw recovery is reported, allowing results from all cooling rates and all generations to be compared directly. […]
After 96 well plates were thawed, calcein-acetoxymethyl (AM)/propidium iodide was added to each well and the wells were covered from light and placed in a 37° C. incubator for 30 minutes to allow the live cells to cleave calcein-AM. The plates were then analyzed for fluorescence on a plate reader. Raw fluorescence values were used to calculate the number of live and dead cells present in each well by correlating to a control curve of unfrozen cells. The live cell recovery was calculated by dividing the number of live cells present in thawed samples (calcein-AM plate reader fluorescence) by the number of live cells seeded pre-freeze (AO/PI counts). […]

lysozyme = lysozyme (Gallus gallus, UniProt P00698); assay: Differential scanning calorimetry, denaturation temperature of lysozyme in osmolyte solution; format: physicochemical; details: 1 mg/ml lysozyme in 20 mM HEPES buffer; single osmolytes 600 mM; heated at 1° C./min; pH 7.3
Protocol: Lysozyme powder was dissolved into each solution reaching final concentration of 100 mg/ml and then refrigerated. Lysozyme in DPBS solution was used as control. For DSC measurements, experiment solution was made by dissolving osmolyte into 20 mM HEPES buffer and the concentration of osmolyte in each solution remained same as in DPBS solution. Lysozyme powder was dissolved into each solution reaching final concentration of 1 mg/ml and kept refrigerated. Lysozyme in HEPES buffer was used as control. The pH of solutions was 7.3 measured by Beckman 350 meter. Differential scanning calorimetry was performed on a differential scanning calorimeter (Q1000, TA Instruments, New Castle, Del.). Osmolyte solutions containing lysozyme were heated in order to determine the denaturation temperature of lysozyme. Experimental solutions were heated from room temperature to 90° C. at 1° C./min. Specific heat, Cp, was calculated from the heat flow data assuming Cp as a function of temperature were analyzed using OriginPro software (OriginLab Corp., Northampton, Mass.) to subtract curve baseline. The midpoint temperature, Tm, was obtained as the temperature corresponding to the maximum specific heat value from the baseline and the denaturation temperature was assumed to be Tm^32.

[4] = statistical analysis of sugar and cooling rate

Sequence of lysozyme (P00698 19-147): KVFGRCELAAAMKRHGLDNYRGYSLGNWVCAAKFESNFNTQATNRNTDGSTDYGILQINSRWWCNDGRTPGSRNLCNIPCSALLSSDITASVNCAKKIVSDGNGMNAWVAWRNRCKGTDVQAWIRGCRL

Structure (SMILES) | Penetration (Jurkat cells [1]) | correlation with recovery (MSCs) | further results
OC[C@@H](O)[C@@H](O)CO [erythritol] | – | negatively correlated | correlation with recovery (Jurkat cells [2]): negatively correlated
OC[C@@H](O)[C@@H](O)[C@@H](O)CO [ribitol] | – | negatively correlated | correlation with recovery (Jurkat cells [2]): negatively correlated
C[C@H](N)C(=O)O [Alanine] | Yes | – | –
O=C(O)[C@@H]1CCCN1 [Proline] | Yes | negatively correlated | correlation with recovery (Jurkat cells [2]): negatively correlated
OC[C@@H](O)[C@@H](O)[C@H](O)[C@@H](O)CO [Sorbitol] | Yes | positively correlated | Denaturation temperature Tm of lysozyme (lysozyme): 83.1 °C
OCCO [Ethylene glycol] | Yes | – | –
CC1=NCC[C@@H](C(=O)O)N1 [Ectoine] | Yes | – | Denaturation temperature Tm of lysozyme (lysozyme): 79.6 °C
NCCS(=O)(=O)O [Taurine] | Yes | – | –

Continued, in another order:

Penetration (Jurkat cells [1]) | Structure (SMILES) | correlation with recovery (MSCs) | further results
Yes | O=C(CO)[C@@H](O)[C@H](O)[C@H](O)CO [Fructose] | – | –
Yes | OC[C@@H](O)[C@@H](O)[C@H](O)[C@H](O)CO [Mannitol] | – | –
Semi* | OC[C@H]1O[C@H](O[C@H]2O[C@H](CO)[C@@H](O)[C@H](O)[C@H]2O)[C@H](O)[C@@H](O)[C@@H]1O [Trehalose] | – | recovery of Jurkat cells, sugar synergy study (Jurkat cells [3]): outperformed monosaccharides; cooling rate at which cells performed better with the sugar (MSCs; [4]): 10° C./min; location of cryoprotectant in Raman contrast image (Jurkat cells [1]): excluded from the cell; cooling rate at which cells performed better with the sugar (Jurkat cells [2]; [4]): 5° C./min
Yes | CC(C)[C@H](N)C(=O)O [Valine] | negatively correlated | –
Yes | OC[C@@H](O)[C@H](O)[C@@H](O)CO [Xylitol] | – | –
Yes | O[C@H]1[C@H](O)[C@@H](O)[C@H](O)[C@@H](O)[C@H]1O [Inositol] | – | –
Yes | OCC(O)CO [Glycerol] | positively correlated | location of cryoprotectant in Raman contrast image (Jurkat cells [1]): present both inside the cell and in the super cooled liquid surrounding the cell
